Strand notation (5' to 3'): a small letter for the sugar, then the base; units joined by * are phosphorothioate-linked, units joined directly phosphodiester-linked; [ ] holds rarer units or linkages, { } end groups; capitals alone tell only the bases. [Uhd] = commercial lipid-conjugated uridine analogue Uhd (C16), from Hongene, reference; {VP} = (thio)vinylphosphonate on the antisense 5' nucleotide, as listed; e = 2'-O-(2-methoxyethyl) (MOE); m = 2'-O-methyl; f = 2'-fluoro
Experiments:
target gene SOD1 [1] = experiment: Test Example 4: lipid conjugated siRNA sequences with different carbon chain lengths, SOD1 in mouse brain, lateral ventricle administration; format: in vivo, C57BL/6j mice; parameters: Right hemisphere Mean value of inhibition rate / Left hemisphere Mean value of inhibition rate: unit not given here; details: D5; for Left hemisphere Mean value of inhibition rate: left hemisphere (non-administration side); for Left hemisphere Mean value of inhibition rate / Right hemisphere Mean value of inhibition rate: lateral ventricle; for Right hemisphere Mean value of inhibition rate: right hemisphere (administration side)
target gene SOD1 [2] = experiment: Test Example 7: inhibitory activity of lipid conjugated siRNA sequences on SOD1 in mouse adipose and muscle tissues (tail vein injection); format: in vivo, C57BL/6j mice; details: for D 14 % Mean value of inhibition rate / D 28 % Mean value of inhibition rate / D 49 % Mean value of inhibition rate / Kidney D 14 % Mean value of inhibition rate / Kidney D 28 % Mean value of inhibition rate / Kidney D 49 % Mean value of inhibition rate / Liver D 14 % Mean value of inhibition rate / Liver D 28 % Mean value of inhibition rate / Liver D 49 % Mean value of inhibition rate: tail vein injection 5 mg/kg; for D 28 % Mean value of inhibition rate / Kidney D 28 % Mean value of inhibition rate / Liver D 28 % Mean value of inhibition rate: D28; for Kidney D 14 % Mean value of inhibition rate / Kidney D 28 % Mean value of inhibition rate / Kidney D 49 % Mean value of inhibition rate: mouse kidney; for Liver D 14 % Mean value of inhibition rate / Liver D 28 % Mean value of inhibition rate / Liver D 49 % Mean value of inhibition rate: mouse liver
Protocol: RNA extraction: the above tissue samples were taken out from the RNAlater, and smashed for 60 s in Tissuelyser type II full-automatic tissue homogenizer, and total RNAs of various tissue samples were extracted using the full-automatic nucleic acid extraction instrument and the nucleic acid extraction kit from Zhejiang Hanwei Science and Technology Co. Ltd. according to methods described in instructions.
Reverse transcription reaction: 1 μg of the extracted total RNAs of the tissue samples were taken, and configured into 20 μL of reverse transcription system according to a method described in kit instructions by using a reverse transcription kit (Reverse Transcription System, A3500) from Promega Corporation and selecting Oligo (dT)15 reverse transcription primers, and the reverse transcription reaction was completed. After the reaction was ended, 80 μL of RNase-Free water was added into the reverse transcription system to provide cDNA solution for Real-time PCR detection.
Real-time PCR detection: 20 μL of Real-time PCR reaction system per PCR detection well was configured according to a method described in kit instructions using SYBR™ Select Master Mix (Catalog number: 4472908) reagent from ABI company. Each detection system contained 5 μL of cDNA template obtained from the above reverse transcription reaction, 10 μL of SYBR™ Select Master Mix, 0.5 μL of 10 μM upstream primers, 0.5 μL of 10 μM downstream primers, and 4 μL of RNase-Free H2O. The configured reaction system was subjected to Real-time PCR amplification on ABI StepOnePlus PCR instrument by a three-step method, wherein an amplification procedure was pre-denaturation at 95° C. for 10 min, then denaturation at 95° C. for 30 s, annealing at 60° C. for 30 s, and extension at 72° C. for 30 s; and processes of denaturation, annealing, and extension were repeated for 40 cycles. Gene expression differences were calculated by the ΔΔCt method after completion of the procedure.
In the real-time fluorescence quantitative PCR method, relative quantitative calculation of remaining expression level and inhibition rate of gene mRNA of interest in various test groups was performed by the ΔΔCt method, and the calculation method is as follows:
The present test example evaluated, by an evaluation method for inhibitory activity on a target gene in mice, the inhibitory activity of siRNA sequence RZ899090 with the sense strand with the NM073 conjugation at Position 4, siRNA sequence RZ899091 with the sense strand with the NM074 conjugation at Position 4, siRNA sequence RZ899078 with the sense strand with the NM202 conjugation at Position 6 and siRNA reference sequence RZ899093 with the sense strand with the Uhd conjugation at Position 4, and siRNA reference sequence RZ899076 with the sense strand with the NM200 conjugation at Position 4 on the target gene SOD1 of interest in mice. The above conjugation vectors were different in that NM073 was C18 aliphatic chain, NM074 was C20 aliphatic chain, and NM0202 and NM0200 were C22 aliphatic chains.
6-8 Week-old C57BL/6j mice were randomly grouped by body weight, 15 per group, 6 groups in total. Mice in each group were dosed with the above siRNA conjugates by tail vein injection, with an administration dose of 5 mg/kg per mouse, and an administration volume of 150 μL. PBS control group was administered with the same volume of siRNA conjugate-free PBS solution. The day of administration was recorded as D0, and 5 mice in each group were sacrificed on D14, D28 and D49 after administration. Tissues such as paragonadal fat, left hind leg quadriceps muscle, heart, liver, and kidney were respectively taken and stored in the RNAlater. RNA extraction, reverse transcription, and real-time fluorescence quantitative detection were performed on various tissues according to the above method, and gene expression differences were calculated by the above ΔΔCt method.

[3] = mouse adipose tissues (paragonadal fat), D14
[4] = mouse adipose tissues (paragonadal fat)
[5] = mouse adipose tissues (paragonadal fat), D49
[6] = mouse skeletal muscle tissues (left hind leg quadriceps muscle), D14
[7] = mouse skeletal muscle tissues (left hind leg quadriceps muscle)
[8] = mouse skeletal muscle tissues (left hind leg quadriceps muscle), D49

RZ899091: siRNA sequence with the sense strand with the NM074 (C20) conjugation at Position 4; SEQ ID NO: 16 / 23 (sense UUUNAAUCCUCACUCUAAA; antisense UUUAGAGUGAGGAUUAAAAUG; NM074 (C20) conjugate at sense position 4; modified_base 1..2 OTHER; 2'-methoxy and 5'-thiophosphate modified nucleotides; modified_base 3 OTHER; 2'-methoxy modified nucleotide; modified_base 4 OTHER; n is the synthetic nucleotide analog NM074 as described in the disclosure.; modified_base 5..6 OTHER; 2'-methoxy modified nucleotides; modified_base 7..10 OTHER; 2'-fluoro modified nucleotides; modified_base 11..19 OTHER; 2'-methoxy modified ; modified_base 1 OTHER; 2'-methoxy and 5'-thiovinylphosphonate modified nucleotide; modified_base 2 OTHER; 2'-fluoro and 5'-thiophosphate modified …)
inhibitory activity compared with the vector-free siRNA sequence RX599002 (target gene SOD1 [1]; left and right hemisphere, lateral ventricle 150 μg per mouse): superior inhibitory activity | Left hemisphere Mean value of inhibition rate (target gene SOD1 [1]; 150 μg per mouse): 70.41 | activity compared with Uhd conjugated reference sequence RZ899093 and NM200 (C22) conjugated reference sequence RZ899076 (target gene SOD1 [1]; right hemisphere (administration side) and left hemisphere (non-administration side), 150 μg per mouse): substantially comparable or superior activity | Right hemisphere Mean value of inhibition rate (target gene SOD1 [1]; 150 μg per mouse): 82.32 | inhibitory action on liver and kidney tissues (target gene SOD1 [2]; liver and kidney (non-target tissues), tail vein 5 mg/kg, D28 and D49): no inhibitory action | D 14 % Mean value of inhibition rate (target gene SOD1 [2]; [3]): 86.81% | D 28 % Mean value of inhibition rate (target gene SOD1 [2]; [4]): 86.36% | D 49 % Mean value of inhibition rate (target gene SOD1 [2]; [5]): 81.73% | inhibitory activity compared with the NM200 conjugated reference sequence RZ899076 (target gene SOD1 [2]; mouse adipose tissues, tail vein 5 mg/kg, D14): on par | gene inhibitory effect compared with RZ899076 (target gene SOD1 [2]; mouse adipose tissues, tail vein 5 mg/kg, D49): superior gene inhibitory effect | inhibitory activity compared with Uhd conjugated reference sequence RZ899093 and NM200 conjugated reference sequence RZ899076 (target gene SOD1 [2]; mouse heart tissues, tail vein 5 mg/kg, D14, D28 and D49): superior inhibitory activity | D 14 % Mean value of inhibition rate (target gene SOD1 [2]; mouse heart tissues, D14): 87.44% | D 28 % Mean value of inhibition rate (target gene SOD1 [2]; mouse heart tissues): 82.78% | D 49 % Mean value of inhibition rate (target gene SOD1 [2]; mouse heart tissues, D49): 81.89% | Kidney D 14 % Mean value of inhibition rate (target gene SOD1 [2]; D14): 31.71% | Kidney D 28 % Mean value of inhibition rate (target gene SOD1 [2]): 3.50% | Kidney D 49 % Mean value of inhibition rate (target gene SOD1 [2]; D49): 9.97% | Liver D 14 % Mean value of inhibition rate (target gene SOD1 [2]; D14): 49.04% | Liver D 28 % Mean value of inhibition rate (target gene SOD1 [2]): 13.03% | Liver D 49 % Mean value of inhibition rate (target gene SOD1 [2]; D49): 7.59% | D 14 % Mean value of inhibition rate (target gene SOD1 [2]; [6]): 69.80% | D 28 % Mean value of inhibition rate (target gene SOD1 [2]; [7]): 72.24% | D 49 % Mean value of inhibition rate (target gene SOD1 [2]; [8]): 41.89% | inhibitory activity in mouse skeletal muscle tissues (target gene SOD1 [2]; skeletal muscle, tail vein 5 mg/kg): certain inhibitory activity

RZ899093: siRNA reference sequence with the sense strand with the Uhd (C16) conjugation at Position 4; SEQ ID NO: 13 / 23 (sense mU*mU*mU[Uhd]mAmAfUfCfCfUmCmAmCmUmCmUmAmAmA; antisense {VP}-mU*fU*mUmAmGfAmGmUmGmAmGfGmAfUeUfAmAmAmA*mU*mG) [reference compound]
Left hemisphere Mean value of inhibition rate (target gene SOD1 [1]; 150 μg per mouse): 70.23 | Right hemisphere Mean value of inhibition rate (target gene SOD1 [1]; 150 μg per mouse): 80.47 | D 14 % Mean value of inhibition rate (target gene SOD1 [2]; [3]): 88.95% | D 28 % Mean value of inhibition rate (target gene SOD1 [2]; [4]): 81.22% | D 49 % Mean value of inhibition rate (target gene SOD1 [2]; [5]): 81.75% | D 14 % Mean value of inhibition rate (target gene SOD1 [2]; mouse heart tissues, D14): 57.83% | D 28 % Mean value of inhibition rate (target gene SOD1 [2]; mouse heart tissues): 60.42% | D 49 % Mean value of inhibition rate (target gene SOD1 [2]; mouse heart tissues, D49): 44.18% | Kidney D 14 % Mean value of inhibition rate (target gene SOD1 [2]; D14): 42.87% | Kidney D 28 % Mean value of inhibition rate (target gene SOD1 [2]): 19.28% | Kidney D 49 % Mean value of inhibition rate (target gene SOD1 [2]; D49): 18.90% | Liver D 14 % Mean value of inhibition rate (target gene SOD1 [2]; D14): 48.04% | Liver D 28 % Mean value of inhibition rate (target gene SOD1 [2]): 13.41% | Liver D 49 % Mean value of inhibition rate (target gene SOD1 [2]; D49): 13.02% | D 14 % Mean value of inhibition rate (target gene SOD1 [2]; [6]): 68.42% | D 28 % Mean value of inhibition rate (target gene SOD1 [2]; [7]): 64.12% | D 49 % Mean value of inhibition rate (target gene SOD1 [2]; [8]): 44.88%
